Test results: PubChem BioAssay (NCI)
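These data come from cells grown in 96-well plates and exposed to compound for 48 hours at five concentrations. At the TGI there is no net growth.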

Experiments:
Experiment in all cases: DTP human tumour cell line panel, 48 h
EKVX NSCLC = test system: EKVX NSCLC
HOP-62 NSCLC = test system: HOP-62 NSCLC
NCI-H226 lung = test system: NCI-H226 lung
HCT-116 colon = test system: HCT-116 colon
KM12 colon = test system: KM12 colon
SK-MEL-5 melanoma = test system: SK-MEL-5 melanoma
SR leukemia = test system: SR leukemia
K-562 leukemia = test system: K-562 leukemia
SW-620 colon = test system: SW-620 colon
SK-OV-3 ovarian = test system: SK-OV-3 ovarian
TK-10 renal = test system: TK-10 renal
OVCAR-8 ovarian = test system: OVCAR-8 ovarian
LXFL 529 NSCLC = test system: LXFL 529 NSCLC
ACHN renal = test system: ACHN renal
OVCAR-3 ovarian = test system: OVCAR-3 ovarian
HL-60(TB) leukemia = test system: HL-60(TB) leukemia
786-0 renal = test system: 786-0 renal
MALME-3M melanoma = test system: MALME-3M melanoma
DMS 114 small cell lung = test system: DMS 114 small cell lung
M19-MEL melanoma = test system: M19-MEL melanoma
HOP-92 NSCLC = test system: HOP-92 NSCLC
SF-539 CNS = test system: SF-539 CNS
SF-268 CNS = test system: SF-268 CNS
UACC-257 melanoma = test system: UACC-257 melanoma
SNB-19 CNS = test system: SNB-19 CNS
HCC-2998 colon = test system: HCC-2998 colon
XF 498 CNS = test system: XF 498 CNS
KM20L2 colon = test system: KM20L2 colon
UACC-62 melanoma = test system: UACC-62 melanoma
SNB-78 CNS = test system: SNB-78 CNS
SF-295 CNS = test system: SF-295 CNS
DLD-1 colon = test system: DLD-1 colon
NCI-H23 lung = test system: NCI-H23 lung
NCI-H522 lung = test system: NCI-H522 lung
M14 melanoma = test system: M14 melanoma
A498 renal = test system: A498 renal
LOX IMVI melanoma = test system: LOX IMVI melanoma
SN12C renal = test system: SN12C renal
CAKI-1 renal = test system: CAKI-1 renal
MOLT-4 leukemia = test system: MOLT-4 leukemia
A549 NSCLC = test system: A549 NSCLC
HOP-18 NSCLC = test system: HOP-18 NSCLC
IGROV1 ovarian = test system: IGROV1 ovarian
SK-MEL-28 melanoma = test system: SK-MEL-28 melanoma
COLO 205 colon = test system: COLO 205 colon
SNB-75 CNS = test system: SNB-75 CNS
U251 CNS = test system: U251 CNS
CCRF-CEM leukemia = test system: CCRF-CEM leukemia
RXF 393 renal = test system: RXF 393 renal
NCI-H460 lung = test system: NCI-H460 lung
HT29 colon = test system: HT29 colon
OVCAR-4 ovarian = test system: OVCAR-4 ovarian
UO-31 renal = test system: UO-31 renal
RPMI-8226 leukemia = test system: RPMI-8226 leukemia
RXF-631 renal = test system: RXF-631 renal
OVCAR-5 ovarian = test system: OVCAR-5 ovarian
DMS 273 small cell lung = test system: DMS 273 small cell lung
HCT-15 colon = test system: HCT-15 colon
SK-MEL-2 melanoma = test system: SK-MEL-2 melanoma

Measured: TGI

COc1ccc(C2COc3c(ccc(OC)c3OC)C2=O)cc1OC (stereo unspecified)
> 100 µM: EKVX NSCLC | HOP-62 NSCLC | NCI-H226 lung | HCT-116 colon | KM12 colon | SK-MEL-5 melanoma | SR leukemia | K-562 leukemia | SW-620 colon | SK-OV-3 ovarian | TK-10 renal | OVCAR-8 ovarian | LXFL 529 NSCLC | ACHN renal | OVCAR-3 ovarian | HL-60(TB) leukemia | 786-0 renal | MALME-3M melanoma | DMS 114 small cell lung | M19-MEL melanoma | HOP-92 NSCLC | SF-539 CNS | SF-268 CNS | UACC-257 melanoma | SNB-19 CNS | HCC-2998 colon | XF 498 CNS | KM20L2 colon | UACC-62 melanoma | SNB-78 CNS | SF-295 CNS | DLD-1 colon | NCI-H23 lung | NCI-H522 lung | M14 melanoma | A498 renal | LOX IMVI melanoma | SN12C renal | CAKI-1 renal | MOLT-4 leukemia | A549 NSCLC | HOP-18 NSCLC | IGROV1 ovarian | SK-MEL-28 melanoma | COLO 205 colon | SNB-75 CNS | U251 CNS | CCRF-CEM leukemia | RXF 393 renal | NCI-H460 lung | HT29 colon | OVCAR-4 ovarian | UO-31 renal | RPMI-8226 leukemia

CC(=O)OC(C)(C)C1CC[C@]2(C)/C=C/C(C)C[C@@H](O)/C=C(\C)CC(O)C12 (stereo partly specified)
> 100 µM: EKVX NSCLC | HOP-62 NSCLC | NCI-H226 lung | HCT-116 colon | KM12 colon | RXF-631 renal | SK-MEL-5 melanoma | SR leukemia | K-562 leukemia | SW-620 colon | SK-OV-3 ovarian | TK-10 renal | OVCAR-8 ovarian | LXFL 529 NSCLC | ACHN renal | OVCAR-3 ovarian | HL-60(TB) leukemia | 786-0 renal | MALME-3M melanoma | DMS 114 small cell lung | M19-MEL melanoma | HOP-92 NSCLC | SF-539 CNS | SF-268 CNS | UACC-257 melanoma | SNB-19 CNS | HCC-2998 colon | KM20L2 colon | UACC-62 melanoma | SNB-78 CNS | SF-295 CNS | DLD-1 colon | NCI-H23 lung | M14 melanoma | OVCAR-5 ovarian | A498 renal | DMS 273 small cell lung | LOX IMVI melanoma | SN12C renal | HCT-15 colon | CAKI-1 renal | MOLT-4 leukemia | A549 NSCLC | HOP-18 NSCLC | IGROV1 ovarian | SK-MEL-28 melanoma | COLO 205 colon | SNB-75 CNS | U251 CNS | CCRF-CEM leukemia | RXF 393 renal | NCI-H460 lung | HT29 colon | OVCAR-4 ovarian | SK-MEL-2 melanoma | UO-31 renal | RPMI-8226 leukemia
